Data taken from patent publication US20200045983A1, “PROMOTER FOR LEGUMINOUS PLANT GROWTH” (KAO CORPORATION, priority 2017, published 2020).

Legend:
soybean (Glycine max) [1] = assay: Effect of soyasaponin Bb on soybean growth in culture soil (Example 1); format: in vivo; conditions: approx. 0.3 ppm in culture soil, 24 days after sowing
Experimental: Each Leonard jar (Soil Science and Plant Nutrition, 1983, 29: 97-100) filled with approximately 65 g of culture soil (Takii water-containing cell culture soil TM-1, Takii & Co., Ltd.) was irrigated with 100 mL of tap water. Then, two seeds of soybean (cultivar “Ryokuheki”, Kaneko Seeds Co., Ltd.) were sown by burying at a depth of approximately 1 cm from the culture soil surface. 1 mL of a solution of 20 μM soyasaponin Bb (soyasaponin I, ChromaDex, Inc.) dissolved in 50 mM TAPS buffer (pH 7.7) was added dropwise onto the culture soil covering the seeds using a micropipette. The soyasaponin Bb concentration in the culture soil was approximately 0.3 ppm (ppm by mass; the same holds true for the description below). 50 mM TAPS buffer (pH 7.7) was applied as a control (soyasaponin Bb non-application plot) in the same way as above.
Plant cultivation was performed in a plant growth chamber (LPH-350SP, Nippon Medical & Chemical Instruments Co., Ltd.). The light conditions were set to 16-hour light (light intensity: 130 μmol/m^2/s)/8-hour dark. The temperature was set to 26° C. for light and 20° C. for dark, and the humidity was set to 50%. Water supply was performed appropriately (approximately once per 7 to 10 days) by the addition of tap water in an appropriate amount to the lower part of the jar. 24 days after the sowing, growth indexes (foliar age, plant height, the number of lateral buds, above-ground part fresh weight, and underground part fresh weight) were measured. Each growth index was obtained as to each of the soyasaponin Bb non-application plot (control) and the soyasaponin Bb application plot by determining a mean of two plant individuals in each jar, and subsequently calculating a mean of four jars (n=4). The Student's t test was used to test the significant difference between the soyasaponin Bb application plot and the non-application plot.

soybean (Glycine max) [2] = assay: Effect of soyasaponin Bb on soybean growth, in combination with root nodule bacterium material (Example 2); format: in vivo; conditions: for foliar age among the three plots / plant height among the three plots / above-ground part fresh weight vs only the root nodule bacterium material / root nodule weight vs only the root nodule bacterium material / number of lateral buds / increase in the number of root nodules vs only the root nodule bacterium material: 1 mL of 20 μM solution, 24 days; for above-ground part fresh weight vs only the root nodule bacterium material: no significant change; for root nodule weight vs only the root nodule bacterium material: no significant difference; for number of lateral buds: rarely seen in non-application plot; for increase in the number of root nodules vs only the root nodule bacterium material: significant only for genistein
Experimental: Each Leonard jar filled with culture soil (Takii water-containing cell culture soil TM-1, Takii & Co., Ltd.) was irrigated with 100 mL of tap water. Then, a root nodule bacterium material (“Dr Mametaro®” (Idemitsu Kosan Co., Ltd.) was distributed at a thickness on the order of 5 mm onto the culture soil in the jar using a spatula. Two seeds of soybean (cultivar “Ryokuheki”, Kaneko Seeds Co., Ltd.) were sown by burying at a depth of approximately 1 cm from the culture soil surface. 1 mL of a solution of 20 μM soyasaponin Bb (soyasaponin I, ChromaDex, Inc.) dissolved in 50 mM TAPS buffer (pH 7.7) was added dropwise onto the culture soil covering the seeds using a micropipette. The soyasaponin Bb concentration in the culture soil was approximately 0.3 ppm. Only 1 mL of 50 mM TAPS buffer as a negative control and 1 mL of 20 μM genistein (Gen) solution as a positive control of root nodule formation promotion were applied in the same way as above (for the root nodule formation-promoting effect of genistein, see: Plant and Soil, 1997, 192: 141-151; and Secretions and Exudates in Biological Systems 27-48, Signaling and Communication in Plants 12, Springer-Verlag Berlin Heidelberg, 2012).
Plant cultivation was performed under the same conditions as in Example 1. 24 days after the sowing, growth indexes (foliar age, plant height, the number of lateral buds, above-ground part fresh weight, underground part fresh weight, the number of root nodules, and root nodule fresh weight) were measured. Each growth index was obtained as to each test plot by determining a mean of two plant individuals in each jar, and subsequently calculating a mean of four jars (n=4). The Tukey-Kramer method was used to test the significant difference among the plots.

lettuce (Lactuca sativa) = conditions: Non Patent Literatures 7 to 10; cited from earlier work
soybean (Glycine max) [3] = assay: Effect of saponin formulation and iron phosphate in combination on soybean yield (Example 10); format: in vivo; conditions: 50 mg saponin formulation and/or 0.75 mg iron(III) phosphate tetrahydrate per pot, irrigation, 86 days
Experimental: “Ryokuheki” (Kaneko Seeds Co., Ltd.) was used as soybean seeds. Each Wagner pot of 1/5,000 a was filled with approximately 4 L of culture soil (Takii water-containing cell culture soil, intermedium-acting fertilizer effect type:expanded vermiculite=1:1 (volume ratio)), and three seeds were sown at a depth of approximately 1 cm from the culture soil surface. 50 mg of a saponin formulation (“soybean saponin 80”; AccessOne Co., Ltd.), 0.75 mg of iron(III) phosphate tetrahydrate (Junsei Chemical Co., Ltd.), and a mixture thereof were each suspended in 100 mL of tap water, and the culture soil surface was irrigated with each suspension (“saponin plot”, “iron phosphate plot” and “combination plot”, respectively; both the concentrations of the saponin formulation of the combination plot and the saponin plot in the culture soil were approximately 12.5 ppm and corresponded to approximately 6.1 ppm in terms of the concentration of group B soyasaponin calculated from quantification results (Table 7) in Production Example 1). […] 86 days after the sowing, pods (the pods include grains; the same holds true for the description below) were harvested, and a pod fresh weight per plant (pot) and a pod fresh weight per pod (average weight per pod) were measured (n=7 only for the combination plot, and n=8 for the other plots). […]

SMILES | foliar age vs non-application plot (soybean (Glycine max) [1]) | plant height vs non-application plot (soybean (Glycine max) [1]) | increase in the number of lateral buds with respect to the non-application plot (soybean (Glycine max) [1]; statistically significant) | increase in underground part fresh weight with respect to the non-application plot (soybean (Glycine max) [1]; statistically significant) | increase in above-ground part fresh weight with respect to the non-application plot (soybean (Glycine max) [1]; tendency, no significant difference) | increase in underground part fresh weight with respect to only the root nodule bacterium material (soybean (Glycine max) [2]; 1 mL of 20 μM solution (approx. 0.3 ppm in culture soil), 24 days after sowing, statistically significant) | foliar age among the three plots (soybean (Glycine max) [2]) | plant height among the three plots (soybean (Glycine max) [2]) | above-ground part fresh weight vs only the root nodule bacterium material (soybean (Glycine max) [2]) | root nodule weight vs only the root nodule bacterium material (soybean (Glycine max) [2]) | number of lateral buds (soybean (Glycine max) [2]) | increase in the number of root nodules vs only the root nodule bacterium material (soybean (Glycine max) [2]) | lettuce radicle elongation (lettuce (Lactuca sativa)) | increase in pod fresh weight per pod with respect to the non-application plot (soybean (Glycine max) [3]; significant (5% or less)) | increase in pod fresh weight per plant with respect to the non-application plot (soybean (Glycine max) [3]; significant only for combination)
C[C@@H]1O[C@@H](O[C@H]2[C@H](O[C@H]3[C@H](O[C@H]4CC[C@@]5(C)[C@@H](CC[C@]6(C)[C@@H]5CC=C5[C@@H]7CC(C)(C)C[C@@H](O)[C@]7(C)CC[C@]56C)[C@@]4(C)CO)O[C@H](C(=O)O)[C@@H](O)[C@@H]3O)O[C@H](CO)[C@H](O)[C@@H]2O)[C@H](O)[C@H](O)[C@H]1O [soyasaponin Bb] | did not differ significantly | did not differ significantly | approximately 2.7 times | approximately 2.2 times | approximately 1.1 times | approximately 1.5 times | did not differ significantly | did not differ significantly | tendency toward increase | tendency toward increase | on average one per individual | approximately 1.3 times | relatively weak or was not seen | – | –
CC1=C(O)C(=O)C[C@H](O[C@@H]2CC(C)(C)C[C@H]3C4=CC[C@@H]5[C@@]6(C)CC[C@H](O[C@@H]7O[C@H](C(=O)O)[C@@H](O)[C@H](O)[C@H]7O[C@@H]7O[C@H](CO)[C@H](O)[C@H](O)[C@H]7O[C@@H]7O[C@@H](C)[C@H](O)[C@@H](O)[C@H]7O)[C@](C)(CO)[C@@H]6CC[C@@]5(C)[C@]4(C)CC[C@@]23C)O1 [soyasaponin βg, reference compound] | – | – | – | – | – | – | – | – | – | – | – | – | promoted | – | –
O.O.O.O.O=P([O-])([O-])[O-].[Fe+3] [iron phosphate, iron(III) phosphate tetrahydrate] | – | – | – | – | – | – | – | – | – | – | – | – | – | approximately 10% | approximately 10%
O=c1c(-c2ccc(O)cc2)coc2cc(O)cc(O)c12 [genistein, reference compound] | – | – | – | – | – | – | did not differ significantly | did not differ significantly | tendency toward increase | tendency toward increase | on average one per individual | approximately 1.7 times | – | – | –
